Measurements reported in PubChem BioAssay AID248 (DTP/NCI, 2004).
Values joined by “and” are separate entries in the source; they are usually repeats but may differ in a detail not shown here. Identical values can stand only once. Inconclusive results and toxic doses are left out.

System: L1210 leukemia ip in BDF1 mice, survival T/C
Assay: NCI In Vivo Anticancer Drug Screen. Data for tumor model L1210 Leukemia (intraperitoneal) in B6D2F1 (BDF1) mice
Settings: endpoint: mean survival time, higher = longer survival
Method in brief: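 Survival endpoint. Drug-treated group vs vehicle group, expressed as T divided by C. Tumor passaged by transplantation.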

[1] = dose: 100.0 mg/kg/injection, schedule: Q04DX002 (ip), vehicle: saline with Tween-80
[2] = dose: 200.0 mg/kg/injection, schedule: Q04DX002 (ip), vehicle: saline with Tween-80
[3] = dose: 100.0 mg/kg/injection, schedule: Q01DX001 (ip), vehicle: saline
[4] = dose: 200.0 mg/kg/injection, schedule: Q01DX001 (ip), vehicle: saline
[5] = dose: 400.0 mg/kg/injection, schedule: Q01DX001 (ip), vehicle: saline
[6] = dose: 100.0 mg/kg/injection, schedule: Q01DX009 (ip), vehicle: saline
[7] = dose: 200.0 mg/kg/injection, schedule: Q01DX009 (ip), vehicle: saline
[8] = dose: 400.0 mg/kg/injection, schedule: Q01DX009 (ip), vehicle: saline
[9] = dose: 50.0 mg/kg/injection, schedule: Q01DX001 (ip), vehicle: carboxymethylcellulose (CMC)
[10] = dose: 100.0 mg/kg/injection, schedule: Q01DX001 (ip), vehicle: carboxymethylcellulose (CMC)
[11] = dose: 400.0 mg/kg/injection, schedule: Q01DX001 (ip), vehicle: carboxymethylcellulose (CMC)
[12] = dose: 100.0 mg/kg/injection, schedule: Q04DX003 (ip), vehicle: saline with Tween-80

For `CCN(CC)P(=O)(N1CC1C)N1CC1C` (stereo unspecified), the T/C (dose: 4.4 mg/kg/injection, schedule: Q01DX015 (ip), vehicle: saline) was 111 % of control, the T/C (dose: 6.25 mg/kg/injection, schedule: Q01DX009 (ip), vehicle: saline) was 122 % of control and the T/C (dose: 6.6 mg/kg/injection, schedule: Q01DX015 (ip), vehicle: saline) was 105 % of control. The T/C (dose: 10.0 mg/kg/injection, schedule: Q01DX015 (ip), vehicle: saline) was 106 % of control, the T/C (dose: 14.0 mg/kg/injection, schedule: Q01DX009 (ip), vehicle: saline) was 112 % of control and the T/C (dose: 15.0 mg/kg/injection, schedule: Q01DX015 (ip), vehicle: saline) was 106 % of control. The T/C (dose: 33.0 mg/kg/injection, schedule: Q01DX015 (ip), vehicle: saline) was 109 % of control, the T/C (dose: 44.4 mg/kg/injection, schedule: Q01DX001 (ip), vehicle: saline) was 108 % of control and 115 % of control and the T/C (dose: 50.0 mg/kg/injection, schedule: Q01DX015 (ip), vehicle: saline) was 102 % of control. For the same molecule, the T/C (dose: 66.6 mg/kg/injection, schedule: Q01DX001 (ip), vehicle: saline) was 121 % of control, the T/C (dose: 75.0 mg/kg/injection, schedule: Q01DX009 (ip), vehicle: saline) was 90 % of control and the T/C (dose: 150.0 mg/kg/injection, schedule: Q01DX001 (ip), vehicle: saline) was 157 % of control.

For `CC(=O)n1c(N)nc2ccccc21`, the T/C (dose: 100.0 mg/kg/injection, schedule: Q01DX009 (ip), vehicle: Klucel (hydroxypropylcellulose) (HPC)) was 103 % of control and the T/C (dose: 200.0 mg/kg/injection, schedule: Q01DX009 (ip), vehicle: Klucel (hydroxypropylcellulose) (HPC)) was 102 % of control.

With `O=C(O)C(Sc1ccc(Cl)cc1)Sc1ccc(Cl)cc1` the T/C (dose: 50.0 mg/kg/injection, schedule: Q04DX003 (ip), vehicle: Klucel (hydroxypropylcellulose) (HPC)) was 103 % of control, the T/C (dose: 100.0 mg/kg/injection, schedule: Q04DX003 (ip), vehicle: Klucel (hydroxypropylcellulose) (HPC)) was 103 % of control and the T/C (dose: 200.0 mg/kg/injection, schedule: Q04DX003 (ip), vehicle: Klucel (hydroxypropylcellulose) (HPC)) was 95 % of control.

In the case of `CC(=O)Nc1ccc(C(N)=O)cn1`, the T/C (dose: 8.0 mg/kg/injection, schedule: Q01DX009 (ip), vehicle: carboxymethylcellulose (CMC)) is reported as 98 % of control, the T/C (dose: 16.0 mg/kg/injection, schedule: Q01DX009 (ip), vehicle: carboxymethylcellulose (CMC)) is reported as 98 % of control and the T/C (dose: 32.0 mg/kg/injection, schedule: Q01DX009 (ip), vehicle: carboxymethylcellulose (CMC)) is reported as 98 % of control. For the same molecule, the T/C (dose: 64.0 mg/kg/injection, schedule: Q01DX001 (ip), vehicle: carboxymethylcellulose (CMC)) was 94 % of control, the T/C (dose: 64.0 mg/kg/injection, schedule: Q01DX009 (ip), vehicle: carboxymethylcellulose (CMC)) was 118 % of control and the T/C (dose: 128.0 mg/kg/injection, schedule: Q01DX001 (ip), vehicle: carboxymethylcellulose (CMC)) was 92 % of control. The T/C (dose: 256.0 mg/kg/injection, schedule: Q01DX001 (ip), vehicle: carboxymethylcellulose (CMC)) was 97 % of control and the T/C (dose: 512.0 mg/kg/injection, schedule: Q01DX001 (ip), vehicle: carboxymethylcellulose (CMC)) was 92 % of control.

With `CC(O)CNC(=S)c1ccccc1` (stereo unspecified) the T/C [1] was 101 % of control and the T/C [2] was 101 % of control.

`Cc1cccc(N(CCOC(=O)Nc2ccc(Cl)cc2)CCOC(=O)Nc2ccc(Cl)cc2)c1` was tested, and the T/C [3] was 94 % of control, the T/C [4] was 94 % of control and the T/C [5] was 96 % of control.

In the case of `CS(=O)(=O)C(=O)O`, the T/C [3] is reported as 96 % of control, the T/C [4] is reported as 101 % of control and the T/C [5] is reported as 98 % of control.

With `CCOC(=O)c1ccc(NC(=S)NC(=O)c2ccccc2)cc1` the T/C [1] was 100 % of control and the T/C [2] was 94 % of control.

`O=C(Nc1cccc(C2=NCC(O)CN2)c1)c1ccc(C(=O)Nc2cccc(C3=NCC(O)CN3)c2)c(Cl)c1` (stereo unspecified) was tested, and the T/C (dose: 6.25 mg/kg/injection, schedule: Q01DX Z (ip), vehicle: water) was 95 % of control.

For `O=[N+]([O-])c1ccc(OCc2ccccc2S(=O)(=O)F)c(Cl)c1`, the T/C (dose: 100.0 mg/kg/injection, schedule: Q04DX003 (ip), vehicle: gum acacia) was 92 % of control, the T/C (dose: 200.0 mg/kg/injection, schedule: Q04DX003 (ip), vehicle: gum acacia) was 93 % of control and the T/C (dose: 400.0 mg/kg/injection, schedule: Q04DX003 (ip), vehicle: gum acacia) was 100 % of control.

In the case of `Nc1nc(N)c2nc(-c3ccccc3)c(N)nc2n1`, the T/C (dose: 2.13 mg/kg/injection, schedule: Q01DX Z (ip), vehicle: other) is reported as 91 % of control, the T/C (dose: 6.25 mg/kg/injection, schedule: Q01DX Z (ip), vehicle: other) is reported as 97 % of control and the T/C (dose: 12.5 mg/kg/injection, schedule: Q01DX Z (ip), vehicle: other) is reported as 105 % of control.

For `CCCC(C)OS(=O)(=O)c1ccc(C)cc1` (stereo unspecified), the T/C [6] was 104 % of control, the T/C [1] was 97 % of control and the T/C [7] was 96 % of control. The T/C [2] was 93 % of control, the T/C [8] was 102 % of control and the T/C (dose: 400.0 mg/kg/injection, schedule: Q04DX002 (ip), vehicle: saline with Tween-80) was 97 % of control.

In the case of `N#CCCNCCC#N`, the T/C [6] is reported as 103 % of control, the T/C (dose: 100.0 mg/kg/injection, schedule: Q04DX003 (ip), vehicle: saline) is reported as 102 % of control and the T/C [7] is reported as 97 % of control. For the same molecule, the T/C (dose: 200.0 mg/kg/injection, schedule: Q04DX003 (ip), vehicle: saline) was 100 % of control, the T/C [8] was 104 % of control and the T/C (dose: 400.0 mg/kg/injection, schedule: Q04DX003 (ip), vehicle: saline) was 96 % of control.

For `COC(C)(C)CN(CCCNC(=S)Nc1ccccc1)C(=S)Nc1ccccc1`, the T/C [9] was 103 % of control, the T/C [10] was 97 % of control and the T/C (dose: 200.0 mg/kg/injection, schedule: Q01DX001 (ip), vehicle: carboxymethylcellulose (CMC)) was 86 % of control. The T/C [11] was 93 % of control.

`Cc1cncc(=O)[nH]1` was tested, and the T/C (dose: 100.0 mg/kg/injection, schedule: Q01DX001 (ip), vehicle: saline with Tween-80) was 98 % of control, the T/C (dose: 100.0 mg/kg/injection, schedule: Q01DX009 (ip), vehicle: saline with Tween-80) was 96 % of control and the T/C [12] was 104 % of control. For the same molecule, the T/C (dose: 200.0 mg/kg/injection, schedule: Q01DX001 (ip), vehicle: saline with Tween-80) was 98 % of control, the T/C (dose: 200.0 mg/kg/injection, schedule: Q01DX009 (ip), vehicle: saline with Tween-80) was 100 % of control and the T/C (dose: 200.0 mg/kg/injection, schedule: Q04DX003 (ip), vehicle: saline with Tween-80) was 111 % of control. For the same molecule, the T/C (dose: 400.0 mg/kg/injection, schedule: Q01DX001 (ip), vehicle: saline with Tween-80) was 102 % of control, the T/C (dose: 400.0 mg/kg/injection, schedule: Q01DX009 (ip), vehicle: saline with Tween-80) was 91 % of control and the T/C (dose: 400.0 mg/kg/injection, schedule: Q04DX003 (ip), vehicle: saline with Tween-80) was 98 % of control.

In the case of `c1ccc2c(c1)ccc1c[n+]3c(ccc4ccccc43)cc12`, the T/C (dose: 25.0 mg/kg/injection, schedule: Q01DX001 (ip), vehicle: carboxymethylcellulose (CMC)) is reported as 104 % of control and the T/C [9] is reported as 108 % of control.

For `CCCCCCCCC1SC1CCCCCCCC(=O)O` (stereo unspecified), the T/C (dose: 100.0 mg/kg/injection, schedule: Q04DX002 (ip), vehicle: Klucel (hydroxypropylcellulose) (HPC)) was 103 % of control, the T/C (dose: 200.0 mg/kg/injection, schedule: Q04DX002 (ip), vehicle: Klucel (hydroxypropylcellulose) (HPC)) was 100 % of control and the T/C (dose: 400.0 mg/kg/injection, schedule: Q04DX002 (ip), vehicle: Klucel (hydroxypropylcellulose) (HPC)) was 95 % of control.

For `Nc1nc(-c2ccccc2)c(CCCOc2ccc([N+](=O)[O-])cc2)c(=O)[nH]1`, the T/C [9] was 88 % of control, the T/C [10] was 91 % of control and the T/C [11] was 88 % of control.

For `BrCc1cc2ccccc2cc1CBr`, the T/C (dose: 12.5 mg/kg/injection, schedule: Q01DX009 (ip), vehicle: Klucel (hydroxypropylcellulose) (HPC)) was 98 % of control, the T/C (dose: 25.0 mg/kg/injection, schedule: Q01DX009 (ip), vehicle: Klucel (hydroxypropylcellulose) (HPC)) was 96 % of control and the T/C (dose: 25.0 mg/kg/injection, schedule: Q04DX003 (ip), vehicle: saline with Tween-80) was 100 % of control. For the same molecule, the T/C (dose: 50.0 mg/kg/injection, schedule: Q01DX009 (ip), vehicle: Klucel (hydroxypropylcellulose) (HPC)) was 93 % of control and 107 % of control, the T/C (dose: 50.0 mg/kg/injection, schedule: Q04DX003 (ip), vehicle: saline with Tween-80) was 104 % of control and the T/C [12] was 96 % of control.
